Results from paper PMC10567728, “Targeted imaging of uPAR expression in vivo with cyclic AE105 variants” (Scientific Reports, 2023).
Values joined by “and” are separate entries in the source; they are usually repeats but may differ in a detail not shown here. Identical values can stand only once. Like-named read-outs stand apart in the source and are kept apart here. Positions of bridges follow the written chain, without caps; N, C: chain ends. Non-standard residues stand in square brackets, D forms with d. Residues, ends and D or L forms follow the SMILES beside them. *: point of attachment. DOTA = O=C(O)CN1CCN(CC(=O)O)CCN(CC(=O)*)CCN(CC(=O)O)CC1; Cha = N[C@@H](CC1CCCCC1)C(=O)O

Key:
uPAR•uPA interaction = molecular target: T1, uPAR•uPA interaction (Homo sapiens, UniProt Q03405); experiment: SPR competition assay of the uPAR•uPA interaction; format: binding; conditions: for IC50: competition of uPAR•uPA interaction, 2 nM uPAR, 20 °C, n = 3
T1 construct: Recombinant human uPAR^1–283 was expressed; made in house; host or cells: Drosophila melanogaster S2 cells
T1 sequence (Q03405 23-305): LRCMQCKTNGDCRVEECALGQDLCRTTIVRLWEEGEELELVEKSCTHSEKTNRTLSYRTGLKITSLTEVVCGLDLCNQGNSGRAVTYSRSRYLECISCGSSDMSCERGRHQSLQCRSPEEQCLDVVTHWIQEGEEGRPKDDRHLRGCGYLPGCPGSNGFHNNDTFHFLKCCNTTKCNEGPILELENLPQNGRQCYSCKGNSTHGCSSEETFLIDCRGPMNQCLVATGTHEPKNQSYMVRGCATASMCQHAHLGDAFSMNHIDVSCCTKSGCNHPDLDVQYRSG
Procedure: The IC50-values of antagonistic peptides on the uPAR•uPA interaction were determined with SPR using a Biacore T200™ or Biacore 3000™ instruments (Cytiva) essentially as described[4],[56],[77]. In brief, we immobilized high levels of pro-uPA^S356A (0.1 pmol pro-uPA/mm^2) on a CM5 sensor chip via amine coupling. The experiments were conducted by injecting 2 nM uPAR in presence of a threefold dilution series of a given antagonistic peptide for 300 s with a flow rate of 50 µL/min at 20 °C. The high immobilization levels result in binding conditions that are entirely controlled by mass transport limitations (MTL). Accordingly, the observed association rates (vobs) are directly proportional to the concentrations of binding-active uPAR in solution. To determine the IC50, we also measured a standard curve of uPAR binding (a twofold dilution series of 0.06 to 2 nM uPAR, linear due to MTL). The running buffer was 10 mM HEPES, 150 mM NaCl, 3 mM EDTA, and 0.05% (v/v) surfactant P-20 at pH 7.4, and the regeneration buffer was 0.1 M acetic acid in 0.5 M NaCl.

uPAR [1] = molecular target: T2, uPAR (Homo sapiens, UniProt Q03405); experiment: SPR real-time binding kinetics, peptides in solution and immobilised uPAR
T2 construct: Recombinant human uPAR^1–283 was expressed; made in house; host or cells: Drosophila melanogaster S2 cells
T2 sequence (Q03405 23-305): as above
Procedure: The real-time binding kinetics of uPAR•peptide interactions were measured with SPR using a Biacore T200™(Cytiva); essentially as described in[56],[77]. In brief, uPAR was covalently immobilised on a CM5 sensor chip via amine coupling resulting in a surface density of 1157–1581 RU (~ 33–44 fmol/mm^2). The binding kinetics for the peptides to immobilised uPAR were measured using a single cycle protocol. In this setup, peptides were injected as five serial two-fold dilutions with a contact time of 200 s. After the last analyte injection, the dissociation time was set to 1000 s. The sensor chip was regenerated with two consecutive injections of 0.1 M acetic acid in 0.5 M NaCl. All experiments were conducted at 20 °C with a flow rate of 50 µL/min in 10 mM HEPES, 150 mM NaCl, 3 mM EDTA, and 0.05% (v/v) surfactant P-20 at pH 7.4. The kinetic rate constants (kon and koff) were determined by non-linear regression fitting of the curves to the simple bimolecular interaction model (BiacoreT200 Evaluation™ 3.0 software).

uPAR [2] = molecular target: T2, uPAR; experiment: Nano-DSF thermal stability of uPAR•peptide complexes; conditions: for Tm (apparent melting temperature of uPAR•peptide complex): 15 µM uPAR, 30 µM peptide, PBS pH 7.4, n = 3
Procedure: The thermal stability of the uPAR•peptide complexes was analyzed with Nano-DSF using a Prometheus NT.48™ (Nanotemper). uPAR (15 µM) was mixed with twofold excess of peptide (30 µM) in PBS pH 7.4 and incubated for 15 min at RT to ensure complex formation. Samples containing either 15 µM uPAR or 30 µM of each peptide were included as controls. The samples were loaded into standard capillaries and in triplicates. To unfold the proteins, the samples were exposed to an increasing temperature gradient from 20 to 95 °C with a ramping rate of 1 °C/min. The excitation power was set to 50% (Ex.280 nm) and the fluorescence emission collected at 330 nm and 350 nm. The melting temperatures of the complexes were determined in the PR.ThermControl software (Nanotemper) from the first derivative of the fluorescence ratio (350 nm/330 nm).

[3] = [63Cu]-DOTA labelled peptides, single-cycle SPR
[4] = single cycle SPR, immobilised uPAR, 20 °C
[5] = single cycle SPR, immobilised uPAR, 20 °C, 1:1 model
[6] = single cycle SPR, immobilised uPAR, 20 °C, read-out: kon

IC50 (uPAR•uPA interaction) [nM] | koff (uPAR [1]; [4]) [s⁻¹] | Kd (uPAR [1]; [5]) | kon (uPAR [1]; [6]) [M⁻¹ s⁻¹] | SMILES | Tm (apparent melting temperature of uPAR•peptide complex) (uPAR [2]) | also measured
48 ± 2 | 0.00557 ± 1e-05 | 26.9 nM | 207000 ± 1000 | CC(C)C[C@H](NC(=O)[C@H](Cc1ccc(O)cc1)NC(=O)[C@@H](CCCNC(=N)N)NC(=O)[C@@H](CO)NC(=O)[C@H](Cc1ccccc1)NC(=O)[C@H](CC1CCCCC1)NC(=O)[C@H](CC(=O)O)NC(=O)CN1CCN(CC(=O)O)CCN(CC(=O)O)CCN(CC(=O)O)CC1)C(=O)N[C@@H](Cc1c[nH]c2ccccc12)C(=O)N[C@@H](CO)C(=O)O [1b] | 58.8 °C | IC50 of DOTA-conjugated peptide compared to unconjugated peptide (uPAR•uPA interaction; (1b) vs (1), (8b) vs (8)): four to fivefold higher; Kd (uPAR [1]; [3]): 86.5 nM; koff (uPAR [1]; [3]): 0.0175 ± 0.0003 s⁻¹; kon (uPAR [1]; [3]): 2.02 ± 0.03 105 M-1 s-1; reduction of affinity on DOTA-conjugation (uPAR [1]; real-time binding kinetics, vs unconjugated peptides): 8–11 fold
10.9 ± 0.3 | 0.0044 ± 1e-05 | 12.5 nM | 352000 ± 1000 | CC(C)C[C@@H]1NC(=O)[C@H](Cc2ccc(O)cc2)NC(=O)[C@H](NC(=O)[C@@H](CO)NC(=O)[C@H](Cc2ccccc2)NC(=O)[C@H](CC2CCCCC2)NC(=O)[C@H](CC(=O)O)NC(=O)CN2CCN(CC(=O)O)CCN(CC(=O)O)CCN(CC(=O)O)CC2)CSSC[C@@H](C(=O)O)NC(=O)[C@H](Cc2c[nH]c3ccccc23)NC1=O [3b] ({DOTA}-D[Cha]F[dS][dC]YLWC-OH; disulfide 5-9) | ~ 70 °C | increase in apparent Tm (uPAR [2]; DOTA-conjugated peptides, compared to (1b)): approximately 11 °C
32.2 ± 0.9 | 0.00717 ± 1e-05 | 33.6 nM | 213000 ± 400 | CC(C)C[C@H](NC(=O)[C@H](Cc1ccc(O)cc1)NC(=O)[C@@H](CCCNC(=N)N)NC(=O)[C@@H](CO)NC(=O)[C@H](Cc1ccccc1)NC(=O)[C@H](CC1CCCCC1)NC(=O)[C@H](CC(=O)O)NC(=O)CNC(=O)CNC(=O)[C@@H](CO)NC(=O)CNC(=O)[C@H](CCC(=O)O)NC(=O)[C@H](CCC(=O)O)NC(=O)CN1CCN(CC(=O)O)CCN(CC(=O)O)CCN(CC(=O)O)CC1)C(=O)N[C@@H](Cc1c[nH]c2ccccc12)C(=O)N[C@@H](CO)C(=O)O [4b] ({DOTA}-EEG[dS]GGD[Cha]F[dS][dR]YLWS-OH) | 55.6 ± 0.03 °C | 
7.7 ± 0.2 | 0.003562 ± 3e-06 | 5 nM and 4.97 nM | 717000 ± 1000 | CC(C)C[C@@H]1NC(=O)[C@H](Cc2ccc(O)cc2)NC(=O)[C@H](NC(=O)[C@@H](CO)NC(=O)[C@H](Cc2ccccc2)NC(=O)[C@H](CC2CCCCC2)NC(=O)[C@H](CC(=O)O)NC(=O)CNC(=O)CNC(=O)[C@@H](CO)NC(=O)CNC(=O)[C@H](CCC(=O)O)NC(=O)[C@H](CCC(=O)O)NC(=O)CN2CCN(CC(=O)O)CCN(CC(=O)O)CCN(CC(=O)O)CC2)CSSC[C@@H](C(N)=O)NC(=O)[C@H](Cc2c[nH]c3ccccc23)NC1=O [11b] ({DOTA}-EEG[dS]GGD[Cha]F[dS][dC]YLWC-NH2; disulfide 11-15) |  | Kd (uPAR [1]; [3]): 22.6 nM; koff (uPAR [1]; [3]): 0.0036 ± 1e-05 s⁻¹
8.8 ± 0.2 | 0.00396 ± 1e-05 | 2.52 nM | 1.568e+06 ± 5000 | CC(C)C[C@H](NC(=O)[C@H](Cc1ccc(O)cc1)NC(=O)[C@@H](CCCNC(=N)N)NC(=O)[C@@H](CO)NC(=O)[C@H](Cc1ccccc1)NC(=O)[C@H](CC1CCCCC1)NC(=O)[C@@H](N)CC(=O)O)C(=O)N[C@@H](Cc1c[nH]c2ccccc12)C(=O)N[C@@H](CO)C(=O)O [compound 1, AE105] |  | 
50.9 ± 2 | 0.0298 ± 0.0001 | 50.2 nM | 594000 ± 3000 | CC(C)C[C@H](NC(=O)[C@H](Cc1ccc(O)cc1)NC(=O)[C@@H](CCCCN)NC(=O)[C@@H](CO)NC(=O)[C@H](Cc1ccccc1)NC(=O)[C@H](CC1CCCCC1)NC(=O)[C@@H](N)CC(=O)O)C(=O)N[C@@H](Cc1c[nH]c2ccccc12)C(=O)N[C@@H](CO)C(=O)O [compound 2] (H-D[Cha]F[dS][dK]YLWS-OH; N-terminus assumed) |  | 
6.5 ± 0.3 | 0.00365 ± 1e-05 | 3.32 nM | 1.098e+06 ± 4000 | CC(C)C[C@@H]1NC(=O)[C@H](Cc2ccc(O)cc2)NC(=O)[C@H](NC(=O)[C@@H](CO)NC(=O)[C@H](Cc2ccccc2)NC(=O)[C@H](CC2CCCCC2)NC(=O)[C@@H](N)CC(=O)O)CSSC[C@@H](C(=O)O)NC(=O)[C@H](Cc2c[nH]c3ccccc23)NC1=O [compound 3] (H-D[Cha]F[dS][dC]YLWC-OH; disulfide 5-9; N-terminus assumed) |  | 
 | 0.054 ± 0.0003 |  | 201000 ± 2000 | CC(C)C[C@H](NC(=O)[C@H](Cc1ccc(O)cc1)NC(=O)[C@@H](CO)NC(=O)[C@@H](CO)NC(=O)[C@H](Cc1ccccc1)NC(=O)[C@H](CC1CCCCC1)NC(=O)[C@H](CC(=O)O)NC(=O)CNC(=O)CNC(=O)[C@@H](CO)NC(=O)CNC(=O)[C@H](CCC(=O)O)NC(=O)[C@@H](N)CCC(=O)O)C(=O)N[C@@H](Cc1c[nH]c2ccccc12)C(=O)N[C@@H](CO)C(=O)O [compound 5] (H-EEG[dS]GGD[Cha]F[dS][dS]YLWS-OH; N-terminus assumed) |  | fold decrease in potency (uPAR•uPA interaction; compared to (4)): 7.8 fold
 |  |  |  | CC(C)C[C@@H]1NC(=O)[C@@H]2CCCN2C(=O)[C@H](NC(=O)[C@@H](CO)NC(=O)[C@H](Cc2ccccc2)NC(=O)[C@H](CC2CCCCC2)NC(=O)[C@H](CC(=O)O)NC(=O)CNC(=O)CNC(=O)[C@@H](CO)NC(=O)CNC(=O)[C@H](CCC(=O)O)NC(=O)[C@@H](N)CCC(=O)O)CSSC[C@@H](C(=O)O)NC(=O)[C@H](Cc2c[nH]c3ccccc23)NC1=O [compound 7] (H-EEG[dS]GGD[Cha]F[dS][dC]PLWC-OH; disulfide 11-15 (inferred); N-terminus assumed) |  | KD (uPAR [1]; [5]): N.B
2.1 ± 0.1 | 0.000998 ± 1e-06 | 0.53 nM | 1.89e+06 ± 3000 | CC(C)C[C@H](NC(=O)[C@H](Cc1ccc(O)cc1)NC(=O)[C@@H](CCCNC(=N)N)NC(=O)[C@@H](CO)NC(=O)[C@H](Cc1ccccc1)NC(=O)[C@H](CC1CCCCC1)NC(=O)[C@@H](N)CC(=O)O)C(=O)N[C@@H](Cc1c[nH]c2ccccc12)C(=O)N[C@@H](CO)C(N)=O [compound 8] |  | 
8.9 ± 0.3 | 0.002063 ± 3e-06 | 2.9 nM | 712000 ± 2000 | CC(C)C[C@@H]1NC(=O)[C@H](Cc2ccc(O)cc2)NC(=O)[C@H](NC(=O)[C@@H](CO)NC(=O)[C@H](Cc2ccccc2)NC(=O)[C@H](CC2CCCCC2)NC(=O)[C@@H](N)CC(=O)O)CSSC[C@@H](C(N)=O)NC(=O)[C@H](Cc2c[nH]c3ccccc23)NC1=O [compound 9] (H-D[Cha]F[dS][dC]YLWC-NH2; disulfide 5-9; N-terminus assumed) |  | 
 | 0.005015 ± 8e-06 |  | 500000 ± 2000 | CC(C)C[C@@H]1NC(=O)[C@H](Cc2ccc(O)cc2)NC(=O)[C@H](NC(=O)[C@@H](CO)NC(=O)[C@H](Cc2ccccc2)NC(=O)[C@H](CC2CCCCC2)NC(=O)[C@H](CC(=O)O)NC(=O)CNC(=O)CNC(=O)[C@@H](CO)NC(=O)CNC(=O)[C@H](CCC(=O)O)NC(=O)[C@@H](N)CCC(=O)O)CSSC[C@@H](C(N)=O)NC(=O)[C@H](Cc2c[nH]c3ccccc23)NC1=O [compound 11] (H-EEG[dS]GGD[Cha]F[dS][dC]YLWC-NH2; disulfide 11-15; N-terminus assumed) | ~ 65 °C | 
